The assay deals with Neisseria gonorrhoeae. The assay can be described thus: EC50 determination: plate-based broth growth assay (absorbance at 600 nm) of Neisseria gonorrhoeae. Format: cell-based. Particulars: absorbance 600 nm after 20 hours at 37° C./5% CO2, read-out: IC50 (Inhibitory concentration) against Neisseria gonorrhoeae. An outline of the steps: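 Mid-log culture diluted to ~10^5 cells/ml as inoculum and grown 20 hours at 37° C./5% CO2 across a 10-point compound dilution series. Growth read as absorbance at 600 nm; EC50 taken from transformed data as the concentration giving 50% response relative to no-compound controls.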

pIC50: −log10 of the molar value. Where a name gives a salt, the structure may show the parent alone.

Turning to `Cc1nnc(Nc2nc3ccc(C(F)(F)F)cc3o2)o1` [Example 104, N-(5-Methyl-1,3,4-oxadiazol-2-yl)-6-(trifluoromethyl)benzo[d]oxazol-2-amine], the pIC50 was at least 7.00. As for `CC(C)c1nnc(Nc2nc3cc(C(F)(F)F)ccc3o2)o1` [Example 108, N-(5-Isopropyl-1,3,4-oxadiazol-2-yl)-5-(trifluoromethyl)benzo[d]oxazol-2-amine], the figure is at least 6.00; as for `Cc1nnc(Nc2nc3ccc(Cl)cc3o2)o1` [Example 109, 6-Chloro-N-(5-methyl-1,3,4-oxadiazol-2-yl)benzo[d]oxazol-2-amine], at least 7.00. With `FC(F)(F)c1ccc2oc(Nc3nnc(C(F)(F)F)o3)nc2c1` [Example 110, 5-(Trifluoromethyl)-N-(5-(trifluoromethyl)-1,3,4-oxadiazol-2-yl)benzo[d]oxazol-2-amine] the figure was at least 4.00.

`Cc1nnc(Nc2nc3cc(C(F)(F)F)ccc3o2)s1` [Example 111, N-(5-Methyl-1,3,4-thiadiazol-2-yl)-5-(trifluoromethyl)benzo[d]oxazol-2-amine]: the pIC50 is at least 6.00. In the case of `Cc1cnc(Nc2nc3cc(C(F)(F)F)ccc3o2)o1` [Example 112, N-(5-Methyloxazol-2-yl)-5-(trifluoromethyl)benzo[d]oxazol-2-amine], the pIC50 is at least 6.00. As for `Cc1nc(Nc2nc3cc(C(F)(F)F)ccc3o2)oc1C` [Example 113, N-(4,5-Dimethyloxazol-2-yl)-5-(trifluoromethyl)benzo[d]oxazol-2-amine], the figure is at least 6.00; as for `FC(F)(F)c1ccc2nc(Nc3nnco3)oc2c1` [Example 114, N-(1,3,4-Oxadiazol-2-yl)-6-(trifluoromethyl)benzo[d]oxazol-2-amine], at least 6.00. As for `Clc1ccc2nc(Nc3nnco3)oc2c1` [Example 115, 6-Chloro-N-(1,3,4-oxadiazol-2-yl)benzo[d]oxazol-2-amine], the figure is at least 6.00; as for `FC(F)(F)c1ccc2oc(Nc3nnc[nH]3)nc2c1` [Example 116, N-(4H-1,2,4-Triazol-3-yl)-5-(trifluoromethyl)benzo[d]oxazol-2-amine], at least 6.00. As for `Cc1nnc(Nc2nc3c(C(F)(F)F)cccc3o2)o1` [Example 118, N-(5-Methyl-1,3,4-oxadiazol-2-yl)-4-(trifluoromethyl)benzo[d]oxazol-2-amine], the figure is at least 5.00; as for `Cc1nnc(Nc2nc3c(Cl)cccc3o2)o1` [Example 119, 4-Chloro-N-(5-methyl-1,3,4-oxadiazol-2-yl)benzo[d]oxazol-2-amine], at least 6.00; as for `Clc1cccc2oc(Nc3nnco3)nc12` [Example 120, 4-Chloro-N-(1,3,4-oxadiazol-2-yl)benzo[d]oxazol-2-amine], at least 6.00. For `Cc1nnc(Nc2nc3cccc(Cl)c3o2)[nH]1` [Example 121, 7-Chloro-N-(5-methyl-4H-1,2,4-triazol-3-yl)benzo[d]oxazol-2-amine], the pIC50 is at least 7.00.

Turning to `Cc1nnc(Nc2nc3ccc(Cl)cc3o2)[nH]1` [Example 122, 6-Chloro-N-(5-methyl-4H-1,2,4-triazol-3-yl)benzo[d]oxazol-2-amine], the pIC50 was at least 5.00. `Cc1nnc(Nc2nc3c(Cl)cc(Cl)cc3o2)[nH]1` [Example 123, 4,6-Dichloro-N-(5-methyl-4H-1,2,4-triazol-3-yl)benzo[d]oxazol-2-amine]: the pIC50 was at least 6.00. As for `Cc1nnc(Nc2nc3c(F)cccc3o2)[nH]1` [Example 124, 4-Fluoro-N-(5-methyl-4H-1,2,4-triazol-3-yl)benzo[d]oxazol-2-amine], the figure is at least 6.00; as for `Cc1nnc(Nc2nc3cc(C(F)(F)F)c(Cl)cc3o2)[nH]1` [Example 125, 6-chloro-N-(5-methyl-4H-1,2,4-triazol-3-yl)-5-(trifluoromethyl)benzo[d]oxazol-2-amine], at least 7.00; as for `CN1CCC[C@H]1c1nnc(Nc2nc3cc(C(F)(F)F)ccc3o2)o1` [Example 126, (S)-N-(5-(1-Methylpyrrolidin-2-yl)-1,3,4-oxadiazol-2-yl)-5-(trifluoromethyl)benzo[d]oxazol-2-amine], at least 6.00. With `CN1CCC[C@@H]1c1nnc(Nc2nc3cc(C(F)(F)F)ccc3o2)o1` [Example 127, (R)-N-(5-(1-methylpyrrolidin-2-yl)-1,3,4-oxadiazol-2-yl)-5-(trifluoromethyl)benzo[d]oxazol-2-amine] the figure was at least 6.00; with `FC(F)(F)c1ccc2oc(Nc3nnc(CN4CCCC4)[nH]3)nc2c1` [Example 128, N-(5-(Pyrrolidin-1-ylmethyl)-4H-1,2,4-triazol-3-yl)-5-(trifluoromethyl)benzo[d]oxazol-2-amine], at least 6.00. With `Clc1cc(Cl)c2nc(Nc3nnc(CN4CCCC4)[nH]3)oc2c1` [Example 129, 4,6-diChloro-N-(5-(pyrrolidin-1-ylmethyl)-4H-1,2,4-triazol-3-yl)benzo[d]oxazol-2-amine] the figure was at least 6.00; with `Clc1cccc2oc(Nc3nnc(CN4CCCC4)[nH]3)nc12` [Example 130, 4-Chloro-N-(5-(pyrrolidin-1-ylmethyl)-4H-1,2,4-triazol-3-yl)benzo[d]oxazol-2-amine], at least 5.00.

With `Clc1cccc2nc(Nc3nnc(CN4CCCC4)[nH]3)oc12` [Example 131, 7-Chloro-N-(5-(pyrrolidin-1-ylmethyl)-4H-1,2,4-triazol-3-yl)benzo[d]oxazol-2-amine], the pIC50 was at least 6.00. As for `Clc1ccc2nc(Nc3nnc(CN4CCCC4)[nH]3)oc2c1` [Example 132, 6-Chloro-N-(5-(pyrrolidin-1-ylmethyl)-4H-1,2,4-triazol-3-yl)benzo[d]oxazol-2-amine], the figure is at least 6.00; as for `O=C(c1nnc(Nc2nc3c(Cl)cc(Cl)cc3o2)o1)N1CCCC1` [Example 133, (5-((4,6-Dichlorobenzo[d]oxazol-2-yl)amino)-1,3,4-oxadiazol-2-yl)(pyrrolidin-1-yl)methanone], at least 6.00; as for `O=C(c1nnc(Nc2nc3c(Cl)cccc3o2)o1)N1CCCC1` [Example 134, (5-((4-Chlorobenzo[d]oxazol-2-yl)amino)-1,3,4-oxadiazol-2-yl)(pyrrolidin-1-yl)methanone], at least 5.00. With `Clc1ccc2oc(Nc3nnco3)nc2c1` [Example 135, 5-Chloro-N-(1,3,4-oxadiazol-2-yl)benzo[d]oxazol-2-amine] the figure was at least 7.00; with `CN(C)Cc1nnc(Nc2nc3cc(C(F)(F)F)ccc3o2)[nH]1` [Example 136, N-(5-((Dimethylamino)methyl)-4H-1,2,4-triazol-3-yl)-5-(trifluoromethyl)benzo[d]oxazol-2-amine], at least 6.00.

On to `FC(F)(F)c1cc2nc(Nc3nnc(CN4CCCC4)[nH]3)oc2cc1Cl` [Example 137, 6-Chloro-N-(5-(pyrrolidin-1-ylmethyl)-4H-1,2,4-triazol-3-yl)-5-(trifluoromethyl)benzo[d]oxazol-2-amine], for which the pIC50 was at least 7.00. With `FC(F)(F)c1cc2nc(Nc3nnco3)oc2cc1Cl` [Example 138, 6-Chloro-N-(1,3,4-oxadiazol-2-yl)-5-(trifluoromethyl)benzo[d]oxazol-2-amine] the figure was at least 7.00; with `CC(C)c1nnc(Nc2nc3cc(C(F)(F)F)c(Cl)cc3o2)[nH]1` [Example 139, 6-Chloro-N-(5-isopropyl-4H-1,2,4-triazol-3-yl)-5-(trifluoromethyl)benzo[d]oxazol-2-amine], at least 6.00; with `Cn1cnc(Nc2nc3cc(C(F)(F)F)c(Cl)cc3o2)c1` [Example 140, 6-Chloro-N-(1-methyl-1H-imidazol-4-yl)-5-(trifluoromethyl)benzo[d]oxazol-2-amine], at least 6.00. With `Cc1nnc(Nc2nc3c(C)cc(Cl)cc3o2)[nH]1` [Example 141, 6-Chloro-4-methyl-N-(5-methyl-4H-1,2,4-triazol-3-yl)benzo[d]oxazol-2-amine] the figure was at least 6.00; with `COCCn1c(C)nnc1Nc1nc2cc(C(F)(F)F)c(Cl)cc2o1` [Example 142, 6-Chloro-N-(4-(2-methoxyethyl)-5-methyl-4H-1,2,4-triazol-3-yl)-5-(trifluoromethyl)benzo[d]oxazol-2-amine], at least 6.00. In the case of `Cc1nnc(Nc2nc3cc(C(F)(F)F)ccc3o2)n1C` [Example 143, N-(4,5-dimethyl-4H-1,2,4-triazol-3-yl)-5-(trifluoromethyl)benzo[d]oxazol-2-amine], the pIC50 is at least 6.00.

As to `Cc1nnc(Nc2nc3cc(C(F)(F)F)c(Cl)cc3n2C)[nH]1` [Example 144, 6-Chloro-1-methyl-N-(5-methyl-4H-1,2,4-triazol-3-yl)-5-(trifluoromethyl)-1H-benzo[d]imidazol-2-amine], the pIC50 is at least 4.00. `FC(F)(F)c1ccc2oc(Nc3nnc(C4CCNCC4)o3)nc2c1` [Example 145, N-(5-(Piperidin-4-yl)-1,3,4-oxadiazol-2-yl)-5-(trifluoromethyl)benzo[d]oxazol-2-amine hydrochloride]: the pIC50 was at least 4.00.

In the case of `FC(F)(F)c1ccc2oc(Nc3nnc([C@@H]4CCCN4)o3)nc2c1` [Example 146, (S)-N-(5-(pyrrolidin-2-yl)-1,3,4-oxadiazol-2-yl)-5-(trifluoromethyl)benzo[d]oxazol-2-amine hydrochloride], the pIC50 is at least 6.00. With `FC(F)(F)c1ccc2oc(Nc3nnc(CN4CCNCC4)o3)nc2c1` [Example 147, N-(5-(Piperazin-1-ylmethyl)-1,3,4-oxadiazol-2-yl)-5-(trifluoromethyl)benzo[d]oxazol-2-amine hydrochloride] the figure was at least 4.00. With `CC(C)(C)OC(=O)N1CCN(c2nnc(Nc3nc4cc(C(F)(F)F)ccc4o3)o2)CC1` [Example 148, tert-butyl 4-(5-((5-(trifluoromethyl)benzo[d]oxazol-2-yl)amino)-1,3,4-oxadiazol-2-yl)piperazine-1-carboxylate] the figure was at least 4.00; with `FC(F)(F)c1cc2oc(Nc3nnco3)nc2cc1Cl` [Example 149, 5-Chloro-N-(1,3,4-oxadiazol-2-yl)-6-(trifluoromethyl)benzo[d]oxazol-2-amine], at least 7.00.
